Laboratory results as given in US7786129B2, “Piperazine derivatives of dialkyl oxindoles” (Egis Gyogyszergyar Nyrt, priority 2004, dated 2010).
Structures can show the parent of a compound that is named as a salt. Marks after values point to notes of the source that are not given here.

Tests used:
Male Mongolian gerbils = test: Neuroprotective effect in global ischemia test (bilateral carotid occlusion); assay type: in vivo, Mongolian gerbil; settings: gerbil; for Effect (%): change of CA1 cell loss score vs. control, 30 mg/kg i.p.; for CA1 cell loss (score): 30 mg/kg i.p. 45 min after surgery, scored 4 days after surgery on 6-point scale
Description: Male Mongolian gerbils weighing 60-90 g were used as test animals. The test compounds were administered intraperitoneally at a dose of 30 mg/kg 45 min after surgery. Test substances were suspended in 0.4% methylcellulose solution. In diethylether narcosis, the right and left common carotid arteries were exposed through an anterior midline cervical incision and isolated from the vagus nerves and the surrounding tissues. Full arrest of carotid blood flow was achieved by tightening an aneurysm clip for 3 min. During surgery the body temperature of the animals was kept at the individual preoperative level (37.5±0.5° C.) with the help of a heating pad and a heating lamp.
4 days after the surgery the animals were anaesthetized with 60 mg/kg i.p nembutal (10 ml/kg) and perfused through the heart first with saline then with a fixative solution containing 0.1% glutaraldehyde, 4% paraformaldehyde and 0.2% picric acid in 0.1 M phosphate buffer (pH 7.4) for 30 min. The brain was removed from the skull and post fixed for at least 1 week at 4° C. in the same fixative solution.
Alternate coronal sections of 60 μm thickness were cut from different levels of the dorsal hippocampus by a microtome. The sections were repeatedly washed in 0.1 M phosphate buffer (pH 7.4) and stained by silver impregnation. The sections were stored twice in a preparatory solution (2% sodium hydroxide and 0.875% ammonium hydroxide solution) for 5 minutes, impregnated for 10 minutes in 0.875% ammonium hydroxide and 0.5% silver nitrate solution) and placed into a washing solution (0.5% sodium carbonate and 0.01% ammonium nitrate dissolved in a 29.1% aqueous ethanol solution) twice for 2 minutes and once for one minute. The slices were then developed in 9.9% ethanol solution containing 1.5% formaldehyde and 0.01% ammonium nitrate and fixed three times for 3 minutes in a 0.5% acetic acid solution. The stained slices were placed in 0.1M phosphate buffer (pH 7.4) and chrome gelatine, applied on plates, dehydrated and treated with xylol. The cover plates were fixed with DPX glue (Fluka).
The sections were examined under light microscopy and the overall neuronal damage in the hippocampal CA1 subfield in both hippocampi was scored on a 6-point scale: (O) undamaged, (1)—0-10%; (2)—10-30%; (3)—30-50%; (4)—50-70%; (5)—70-90%; (6)—90-100% cell loss. Group differences between drug-treated and vehicle-treated groups were statistically analysed by Mann-Whitney U-test.

Male Wistar rats = test: Vogel's drinking conflict test; assay type: in vivo; settings: ip, 0.5 h, rat, i.p. 30 min prior to test, increase in tolerated shocks, read-out: MED
Description: (§1) The anxiolytic effect of the compounds according to the invention was investigated on rats according to Vogel's drinking conflict test and elevated plus-maze test (S. Pelow, P. Chopin, S. E. File, J. Briley: Neurosci. Methods 14, p. 149 (1985)).
Male Wistar rats weighing 160-180 g were used for the experiment. The animals were deprived of drinking water for 48 hours and fasted for 24 hours prior to test. The test compounds or vehicle were administered intraperitoneally, 30 min prior to test. […] Following every 20 licks electric shocks (0.7 mA) were applied through the drinking spout during the 5 min test period. The number of punished licks were recorded. The effect of the test compounds was expressed as % increase in numbers of tolerated shocks. Minimal effective doses (MED) were determined for each compound.

Male Sprague-Dawley rats = test: Elevated plus-maze test in rats; assay type: in vivo; settings: minimal effective dose, rat, p.o., 60 min after treatment, time in or entries into open arms
Description: as §1
A wooden cross elevated to 50 cm above the floor, 15 cm wide with 100 cm long arms was used for the experiments. The sides and ends of two opposite arms of the cross were equipped with 40 cm high walls, however, the arms were open to the 15×15 cm central area (closed arms). The two other opposite arms were not encircled by walls (open arms).
Male Sprague-Dawley rats weighing 200-220 g were used for the experiments. The animals were placed in the central area of the equipment 60 min after treatment and the following four parameters have been observed for the 5 min test time: • time spent in the open arms (sec), • time spent in the closed arms (see), • number of entries into the open arms, • number of entries into the closed arms.
The effect was expressed as percent increase in either the time spent in the open arms or number of entries into the open arms. MEDs (minimal effective doses) were determined for each compound.

5-HT1A receptor = target: T1, 5-HT1A receptor (Rattus norvegicus, UniProt P19327); test: 5-HT1A receptor binding; settings: rat frontal cortex preparation, ligand tritiated 8-OH-DPAT
T1 construct: from tissue; host or cells: rat frontal cortex membrane preparation
T1 sequence (P19327 1-422): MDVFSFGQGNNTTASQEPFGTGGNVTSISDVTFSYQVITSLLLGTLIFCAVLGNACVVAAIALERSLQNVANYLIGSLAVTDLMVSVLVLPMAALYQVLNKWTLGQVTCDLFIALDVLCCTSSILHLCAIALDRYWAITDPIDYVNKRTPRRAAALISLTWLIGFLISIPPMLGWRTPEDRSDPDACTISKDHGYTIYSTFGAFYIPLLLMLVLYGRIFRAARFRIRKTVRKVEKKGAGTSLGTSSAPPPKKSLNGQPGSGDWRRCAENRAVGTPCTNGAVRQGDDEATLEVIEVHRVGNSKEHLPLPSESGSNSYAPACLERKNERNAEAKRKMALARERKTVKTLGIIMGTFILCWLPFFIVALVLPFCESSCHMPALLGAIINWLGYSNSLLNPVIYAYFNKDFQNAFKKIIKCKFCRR
Description: (§2) Receptor bindings—with the exception of the 5-HT2C receptor binding—were determined by using cerebral region preparations of male Wistar rats weighing 120-200 g. For the preparation of 5-HT1A receptor binding frontal cortex preparations were used. The al receptor binding studies were performed from isolated frontal cortex pre-parations. For the 5-HT2C receptor binding experiments choroid plexus of pigs was used. The protein contents of membrane preparations were determined by the method of Lowry (1951).
5-HT1A receptor binding was measured according to the method of Peroutka (Peroutka, S. J.: J. Neurochem. 47, p. 529 (1986)). The ligand was tritiated 8-hydroxy-N,N-dipropyl-2-aminotetraline (8-OH-DPAT). For the determination of non-specific binding 10 μM serotonin was applied. Incubation […] volume was 250 μl. Incubation was carried out at a temperature of 25 C for 30 minutes. The reaction was terminated by the addition of 9 ml of ice-cold 50 mM TRIS-HCl (pH 7.7) buffer and quick vacuum filtration using Whatman GFIB fibreglass filtering paper. Radioactivity of the filter boards was measured by liquid scintillation spectrometry.
(§3) The IC50 value is the value of concentration where the difference between total and non-specific binding is 50% in the presence of a determined concentration of a specific ligand.

α1 receptor = α1 receptor binding experiment; settings: rat isolated frontal cortex preparation, ligand 3H-prazosine 0.3 nM
Description: as §2
(§4) In the course of 5-HT2C and α1 receptor binding experiments the ligands were ^3H-mesulergin (1.0 nM) and ^3H-prazosine (0.3 nM), respectively. The non-specifically binding ligands were mianserine (1 μM and prazosine (1 μM), respectively.
as §3

5-HT2C receptor = target: T2, 5-HT2C receptor (Sus scrofa, UniProt K7GSR7); test: 5-HT2C receptor binding; design: species or system pig; settings: choroid plexus of pigs, ligand 3H-mesulergin 1.0 nM
T2 construct: from tissue; host or cells: pig choroid plexus membrane preparation
T2 sequence (K7GSR7 1-457): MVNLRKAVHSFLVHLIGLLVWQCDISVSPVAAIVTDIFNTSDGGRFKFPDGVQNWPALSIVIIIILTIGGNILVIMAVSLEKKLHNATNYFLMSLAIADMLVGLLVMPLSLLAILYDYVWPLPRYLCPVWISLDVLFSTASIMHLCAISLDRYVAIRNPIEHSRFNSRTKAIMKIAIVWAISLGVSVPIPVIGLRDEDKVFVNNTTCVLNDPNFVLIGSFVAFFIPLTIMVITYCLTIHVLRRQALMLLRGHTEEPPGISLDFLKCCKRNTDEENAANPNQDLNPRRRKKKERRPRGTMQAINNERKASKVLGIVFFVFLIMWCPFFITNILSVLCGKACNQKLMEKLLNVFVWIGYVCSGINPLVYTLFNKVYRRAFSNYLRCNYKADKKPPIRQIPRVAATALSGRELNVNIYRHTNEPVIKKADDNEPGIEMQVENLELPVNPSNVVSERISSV
Description: as §2, §4, §3

[1] = tested on: dopamine release in the internal ear of guinea pig; test: Dopamine release in the internal ear (cochlear preparations, oxygen and glucose deprivation); settings: guinea pig cochlear preparation, second stimulation after oxygen and glucose deprivation, FIG. 1
Description: The study of the effect on the hearing impairment and tinnitus were performed in guinea pigs weighing 145-375 g (Toxicoop, Hungary) according to the method of Gáboiján et al. (Gáboiján, A., Lendvai, B, Vizi, E. S.: Neuroscience 90, p. 131 (1999)). The dopamine release in the internal ear, as a correlate of hearing impairment, was measured in samples from cochlear preparations (lateral olivocochlear efferents) with high-pressure liquid chromatography (HPLC). The samples were collected in every 3 minutes during 60 minutes (20 fractions). Electric field stimulation was generally applied during the 3rd and 13th fraction (S1, S2, 2 Hz, 360 shocks, 60 V; Grass Medical Instruments). In the respective experiments ischemia (oxygen and glucose deprivation, OGD) was mimicked by the perfusion of a buffer saturated with 100% N2 and containing sacharose instead of glucose. Results are expressed as a percent of dopamine release per fraction. Statistical analysis was performed by analysis of variance (ANOVA) followed by Tukey test.
From the thus-obtained results the effect of the compound of Example 76 on the dopamine release in the internal ear of guinea pig is shown (FIG. 1). The initial stimulation (SI) evoked considerable dopamine release. […] This effect can be interpreted as an inhibition of hearing impairment.

SMILES	Effect (%) (Male Mongolian gerbils)	CA1 cell loss (score) (Male Mongolian gerbils)	minimal effective dose (Male Wistar rats) [mg/kg]	MED (Male Sprague-Dawley rats) [mg/kg p.o.]	IC50 (5-HT1A receptor) [nM]	IC50 (α1 receptor) [nM]	IC50 (5-HT2C receptor) [nM]	melting point [°C]	dopamine release in the internal ear [1]
CCC1(CCCCN2CCN(c3cccc(Cl)c3)CC2)C(=O)Nc2ccc(F)cc21 (stereo not drawn) [Example 85, 3-{4-[4-(3-Chlorophenyl)-piperazin-1-yl]-butyl}-3-ethyl-5-fluoro-1,3-dihydro-2H-indol-2-one mono-hydrochloride]	−46	2.70* score	5	0.1	–	–	–	–	–
CCC1(CCCCN2CCN(c3cccc(Cl)c3)CC2)C(=O)Nc2ccc(C)cc21 (stereo not drawn) [Example 78, 3-{4-[4-(3-Chlorophenyl)-piperazin-1-yl]-butyl}-3-ethyl-5-methyl-1,3-dihydro-2H-indol-2-one]	–	–	–	–	> 200	< 100	< 100	142 to 144	–
CCC1(CCCCN2CCN(c3ccc(Cl)cc3)CC2)C(=O)Nc2ccccc21 (stereo not drawn) [Example 76, 3-{4-[4-(4-Chlorophenyl)-piperazin-1-yl]-butyl}-3-ethyl-1,3-dihydro-2H-indol-2-one]	−52	2.40* score	10	–	–	–	–	145 to 146	the release stabilized at a significantly higher level
CCC1(CCCCN2CCN(c3ccc(F)cc3)CC2)C(=O)Nc2ccccc21 (stereo not drawn) [Example 95, 3-Ethyl-3-{4-[4-(4-fluorophenyl)-piperazin-1-yl]-butyl}-1,3-dihydro-2H-indol-2-one]	–	–	10	0.1	> 300	–	–	118 to 119	–
CCC1(CCCCN2CCN(c3ccc(Cl)cc3)CC2)C(=O)Nc2c(Cl)cc(Cl)cc21 (stereo not drawn) [Example 87, 5,7-Dichloro-3-{4-[4-(4-chlorophenyl)-piperazin-1-yl]-butyl}-3-ethyl-1,3-dihydro-2H-indol-2-one]	–	–	5	0.3	> 400	–	–	152 to 154	–
